How the values were obtained:
[1] = molecular target: JAK2 (Homo sapiens (Human), UniProt O60674); test: JAK2 Z-Lyte biochemical assay; conditions: commercial JAK2 Z-Lyte assay from Invitrogen
Method: The JAK2 Z-Lyte biochemical assay was performed according to manufacturer's instructions (Life Technologies).

[2] = system: cell lines or patient-derived xenografts from patients with CRLF2-rearranged B-ALL; conditions: cited from earlier work
[3] = system: JAK2/STAT5; test: Western blots of JAK2/STAT5 inhibition in cells; type: cell-based; conditions: cells treated with indicated concentrations for 4 hours; immunoblotting pJAK2, pSTAT5, c-Myc
Method: (§1) FIG. 1. […] Cells were treated with the indicated concentrations of JAK2 inhibitor for 4 hours. Cell pellets were lysed with Cell Lysis Buffer (Cell Signaling Technology) and then immunoblotting was performed with pJAK2 (#3771), pSTAT5 (#4322), c-Myc (#9402), JAK2 (#3230), STAT5 (#9363 or 94205), and β-actin (#4967 or 12620) antibodies from Cell Signaling Technology.
as §1, with “2.” for “1.”

Sequence of JAK2 (O60674 whole entry): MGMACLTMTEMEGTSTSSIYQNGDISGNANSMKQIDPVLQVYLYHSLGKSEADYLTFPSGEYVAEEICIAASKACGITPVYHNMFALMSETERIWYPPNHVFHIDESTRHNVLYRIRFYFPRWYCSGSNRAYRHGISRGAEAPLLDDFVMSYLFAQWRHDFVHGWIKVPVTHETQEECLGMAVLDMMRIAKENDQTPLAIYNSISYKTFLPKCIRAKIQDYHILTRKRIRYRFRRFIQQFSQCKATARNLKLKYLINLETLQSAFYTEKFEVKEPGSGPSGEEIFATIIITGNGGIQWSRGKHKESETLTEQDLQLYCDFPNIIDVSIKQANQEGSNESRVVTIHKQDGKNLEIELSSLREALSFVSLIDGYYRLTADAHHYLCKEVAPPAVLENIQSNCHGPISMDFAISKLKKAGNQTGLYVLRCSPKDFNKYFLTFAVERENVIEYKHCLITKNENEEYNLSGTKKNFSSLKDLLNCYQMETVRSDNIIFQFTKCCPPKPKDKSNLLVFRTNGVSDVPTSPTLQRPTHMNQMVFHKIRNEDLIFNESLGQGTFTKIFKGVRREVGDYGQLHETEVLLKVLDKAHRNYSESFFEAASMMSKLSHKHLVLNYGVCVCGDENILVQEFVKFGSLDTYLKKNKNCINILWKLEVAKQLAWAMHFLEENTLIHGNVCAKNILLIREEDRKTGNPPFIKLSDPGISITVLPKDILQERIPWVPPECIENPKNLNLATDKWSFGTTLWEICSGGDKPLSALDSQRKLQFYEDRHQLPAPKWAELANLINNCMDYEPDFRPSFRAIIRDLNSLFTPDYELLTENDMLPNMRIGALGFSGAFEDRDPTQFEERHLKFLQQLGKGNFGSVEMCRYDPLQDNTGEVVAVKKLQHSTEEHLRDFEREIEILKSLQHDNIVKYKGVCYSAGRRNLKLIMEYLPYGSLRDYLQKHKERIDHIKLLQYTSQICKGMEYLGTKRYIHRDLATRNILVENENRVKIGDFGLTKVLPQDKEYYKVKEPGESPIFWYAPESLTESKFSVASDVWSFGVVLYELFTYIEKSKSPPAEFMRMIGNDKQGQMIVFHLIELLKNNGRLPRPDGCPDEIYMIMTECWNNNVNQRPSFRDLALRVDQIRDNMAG

SMILES | IC50 [1] | IC50 [2] | JAK2/STAT5 inhibition (Western blots) [3]
O=C(Nc1nc2ccc(-c3ccc4c(c3)CN(C(=O)Nc3ccc(F)cc3F)C4)nc2s1)C1CC1 [Compound I-15, 5-(2-(cyclopropanecarboxamido)thiazolo[5,4-b]pyridin-5-yl)-N-(2,4-difluorophenyl)isoindoline-2-carboxamide] | > 10 µM | – | –
Cc1ccc(NC(=O)Nc2ccc(F)cc2F)cc1-c1ccc2nc(NC(=O)C3CC3)sc2n1 [Compound I-3, N-(5-(5-(3-(2,4-difluorophenyl)ureido)-2-methylphenyl)thiazolo[5,4-b]pyridin-2-yl)cyclopropanecarboxamide] | > 10 µM | – | –
CCN1CCN(Cc2cc(C(=O)N3CCc4ccc(-c5ccc6nc(NC(=O)C7CC7)sc6n5)cc43)cc(C(F)(F)F)c2)CC1 [Compound I-11, N-(5-(1-(3-((4-ethylpiperazin-1-yl)methyl)-5-(trifluoromethyl)benzoyl)indolin-6-yl)thiazolo[5,4-b]pyridin-2-yl)cyclopropanecarboxamide] | > 10 µM | – | –
CCN1CCN(Cc2cc(NC(=O)Nc3ccc(C)c(-c4ccc5nc(NC(=O)C6CC6)sc5n4)c3)cc(C(F)(F)F)c2)CC1 [Compound I-9, N-(5-(5-(3-(3-((4-ethylpiperazin-1-yl)methyl)-5-(trifluoromethyl)phenyl)ureido)-2-methylphenyl)thiazolo[5,4-b]pyridin-2-yl)cyclopropanecarboxamide] | > 10 µM | – | –
CCN1CCN(Cc2cc(C(=O)Nc3cccc(-c4ccc5nc(NC(=O)C6CC6)sc5n4)c3)cc(C(F)(F)F)c2)CC1 [Compound I-7, N-(3-(2-(cyclopropanecarboxamido)thiazolo[5,4-b]pyridin-5-yl)phenyl)-3-((4-ethylpiperazin-1-yl)methyl)-5-(trifluoromethyl)benzamide] | 0.55 µM | – | –
CC(=O)Nc1nc2ccc(-c3cc(C(=O)Nc4ccc(F)cc4F)ccc3C)nc2s1 [Compound I-2, 3-(2-acetamidothiazolo[5,4-b]pyridin-5-yl)-N-(2,4-difluorophenyl)-4-methylbenzamide] | > 10 µM | – | –
N#CC[C@H](C1CCCC1)n1cc(-c2ncnc3[nH]ccc23)cn1 [Ruxolitinib] | – | > 20 µM | –
O=C(Nc1nc2ccc(-c3ccc4c(c3)N(C(=O)Nc3ccc(F)cc3F)CC4)nc2s1)C1CC1 [Compound I-10, 6-(2-(cyclopropanecarboxamido)thiazolo[5,4-b]pyridin-5-yl)-N-(2,4-difluorophenyl)indoline-1-carboxamide] | > 10 µM | – | –
CCN1CCN(Cc2cc(NC(=O)N3Cc4ccc(-c5ccc6nc(NC(=O)C7CC7)sc6n5)cc4C3)cc(C(F)(F)F)c2)CC1 [Compound I-14, 5-(2-(cyclopropanecarboxamido)thiazolo[5,4-b]pyridin-5-yl)-N-(3-((4-ethylpiperazin-1-yl)methyl)-5-(trifluoromethyl)phenyl)isoindoline-2-carboxamide] | > 10 µM | – | –
CCN1CCN(Cc2cc(C(=O)Nc3ccc(C)c(-c4ccc5nc(NC(=O)C6CC6)sc5c4)c3)cc(C(F)(F)F)c2)CC1 [Compound I-4] | 0.881 µM | – | –
CCN1CCN(Cc2cc(C(=O)Nc3ccc(C)c(-c4ccc5nc(NC(=O)C6CC6)sc5n4)c3)cc(C(F)(F)F)c2)CC1 [Compound I-8, N-(3-(2-(cyclopropanecarboxamido)thiazolo[5,4-b]pyridin-5-yl)-4-methylphenyl)-3-((4-ethylpiperazin-1-yl)methyl)-5-(trifluoromethyl)benzamide] | 0.639 µM | – | JAK2/STAT5 inhibition
CCN1CCN(Cc2cc(C(=O)N3Cc4ccc(-c5ccc6nc(NC(=O)C7CC7)sc6n5)cc4C3)cc(C(F)(F)F)c2)CC1 [Compound I-13, N-(5-(2-(3-((4-ethylpiperazin-1-yl)methyl)-5-(trifluoromethyl)benzoyl)isoindolin-5-yl)thiazolo[5,4-b]pyridin-2-yl)cyclopropanecarboxamide] | > 10 µM | – | –
Cc1ccc(NC(=O)Nc2ccc(F)cc2F)cc1Oc1ccc2nc(NC(=O)C3CC3)sc2n1 [Compound I-16, N-(5-(5-(3-(2,4-difluorophenyl)ureido)-2-methylphenoxy)thiazolo[5,4-b]pyridin-2-yl)cyclopropanecarboxamide] | > 10 µM | – | –
CCN1CCN(Cc2cc(NC(=O)N3CCc4ccc(-c5ccc6nc(NC(=O)C7CC7)sc6n5)cc43)cc(C(F)(F)F)c2)CC1 [Compound I-12, 6-(2-(cyclopropanecarboxamido)thiazolo[5,4-b]pyridin-5-yl)-N-(3-((4-ethylpiperazin-1-yl)methyl)-5-(trifluoromethyl)phenyl)indoline-1-carboxamide] | > 10 µM | – | –
CCN1CCN(C(=O)c2cc(NC(=O)c3ccc(C)c(-c4ccc5nc(NC(=O)C6CC6)sc5n4)c3)cc(C(F)(F)F)c2)CC1 [Compound I-6, 3-(2-(cyclopropanecarboxamido)thiazolo[5,4-b]pyridin-5-yl)-N-(3-(4-ethylpiperazine-1-carbonyl)-5-(trifluoromethyl)phenyl)-4-methylbenzamide] | 1.45 µM | – | JAK2/STAT5 inhibition
Cc1ccc(C(=O)Nc2ccc(F)cc2F)cc1-c1ccc2nc(NC(=O)C3CC3)sc2n1 [Compound I-1, 3-(2-(cyclopropanecarboxamido)thiazolo[5,4-b]pyridin-5-yl)-N-(2,4-difluorophenyl)-4-methylbenzamide] | > 10 µM | – | –

More lines, main results first:

IC50 [1] | SMILES | IC50 [2] | JAK2/STAT5 inhibition (Western blots) [3]
0.824 µM | CCN1CCN(Cc2cc(C(=O)Nc3ccc(C)c(Oc4ccc5nc(NC(=O)C6CC6)sc5n4)c3)cc(C(F)(F)F)c2)CC1 [Compound I-19, N-(3-((2-(cyclopropanecarboxamido)thiazolo[5,4-b]pyridin-5-yl)oxy)-4-methylphenyl)-3-((4-ethylpiperazin-1-yl)methyl)-5-(trifluoromethyl)benzamide] | – | –
> 10 µM | O=C(Nc1nc2ccc(Oc3ccc4c(c3)CN(C(=O)Nc3ccc(F)cc3F)C4)nc2s1)C1CC1 [Compound I-23, 5-((2-(cyclopropanecarboxamido)thiazolo[5,4-b]pyridin-5-yl)oxy)-N-(2,4-difluorophenyl)isoindoline-2-carboxamide] | – | –
> 10 µM | O=C(Nc1nc2ccc(Oc3ccc4nc(Nc5ccc(F)cc5F)[nH]c4c3)nc2s1)C1CC1 [Compound I-24, N-(5-((2-((2,4-difluorophenyl)amino)-1H-benzo[d]imidazol-6-yl)oxy)thiazolo[5,4-b]pyridin-2-yl)cyclopropanecarboxamide] | – | –
> 10 µM | CCN1CCN(Cc2cc(NC(=O)N3Cc4ccc(Oc5ccc6nc(NC(=O)C7CC7)sc6n5)cc4C3)cc(C(F)(F)F)c2)CC1 [Compound I-22, 5-((2-(cyclopropanecarboxamido)thiazolo[5,4-b]pyridin-5-yl)oxy)-N-(3-((4-ethylpiperazin-1-yl)methyl)-5-(trifluoromethyl)phenyl)isoindoline-2-carboxamide] | – | –
> 10 µM | CCN1CCN(Cc2ccc(NC(=O)Nc3ccc(C)c(Oc4ccc5nc(NC(=O)C6CC6)sc5n4)c3)cc2C(F)(F)F)CC1 [Compound I-17, N-(5-(5-(3-(4-((4-ethylpiperazin-1-yl)methyl)-3-(trifluoromethyl)phenyl)ureido)-2-methylphenoxy)thiazolo[5,4-b]pyridin-2-yl)cyclopropanecarboxamide] | – | –
> 10 µM | CCN1CCN(Cc2ccc(NC(=O)N3Cc4ccc(Oc5ccc6nc(NC(=O)C7CC7)sc6n5)cc4C3)cc2C(F)(F)F)CC1 [Compound I-21, 5-((2-(cyclopropanecarboxamido)thiazolo[5,4-b]pyridin-5-yl)oxy)-N-(4-((4-ethylpiperazin-1-yl)methyl)-3-(trifluoromethyl)phenyl)isoindoline-2-carboxamide] | – | –
2.83 µM | CCN1CCN(Cc2cc(NC(=O)c3ccc(C)c(Oc4ccc5nc(NC(=O)C6CC6)sc5n4)c3)cc(C(F)(F)F)c2)CC1 [Compound I-20, 3-((2-(cyclopropanecarboxamido)thiazolo[5,4-b]pyridin-5-yl)oxy)-N-(3-((4-ethylpiperazin-1-yl)methyl)-5-(trifluoromethyl)phenyl)-4-methylbenzamide] | – | –
0.63 µM | CCN1CCN(Cc2ccc(Nc3nc4ccc(Oc5ccc6nc(NC(=O)C7CC7)sc6n5)cc4[nH]3)cc2C(F)(F)F)CC1 [Compound I-25, N-(5-((2-((4-((4-ethylpiperazin-1-yl)methyl)-3-(trifluoromethyl)phenyl)amino)-1H-benzo[d]imidazol-6-yl)oxy)thiazolo[5,4-b]pyridin-2-yl)cyclopropanecarboxamide] | – | –
